Test systems include CAKI-1 renal; CCRF-CEM leukemia; MALME-3M melanoma; MCF7 breast; NCI-H522 lung; NCI/ADR-RES ovarian; RPMI-8226 leukemia; SK-MEL-2 melanoma; SK-MEL-28 melanoma; UACC-62 melanoma.
Assay in all cases: inhibition of tumour cell growth, NCI panel, 48 h

The structures appear in SMILES notation. Values joined by “and” are separate entries in the source; they are usually repeats but may differ in a detail not shown here. Identical values can stand only once.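 Five compound concentrations were applied to cells in 96-well plates for 48 hours; endpoints were derived by simple linear interpolation of the resulting dose-response curve. Abbreviation: GI50, concentration required for 50% inhibition of growth. Definition used: TGI = concentration required for complete inhibition of growth.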

Turning to `CC(=O)N[C@@H](Cc1ccc(OP(=O)(O)O)cc1)C(=O)N[C@H]1CCC(=O)N2CCC[C@@H](C(=O)Nc3cccc4ccccc34)N2C1=O`, the GI50 in the assay on CAKI-1 renal, with CCRF-CEM leukemia, with MALME-3M melanoma, with MCF7 breast, with NCI-H522 lung and in the assay with NCI/ADR-RES ovarian was more than 25 µM throughout. Also, the GI50 with RPMI-8226 leukemia, with SK-MEL-2 melanoma, with SK-MEL-28 melanoma and with UACC-62 melanoma was more than 25 µM each time. The TGI in the assay on CAKI-1 renal, in the assay on CCRF-CEM leukemia, in the assay on MALME-3M melanoma, in the assay on MCF7 breast, with NCI-H522 lung and in the assay on NCI/ADR-RES ovarian was more than 25 µM throughout. In addition, the TGI in the assay on RPMI-8226 leukemia, in the assay on SK-MEL-2 melanoma, in the assay on SK-MEL-28 melanoma and in the assay with UACC-62 melanoma was more than 25 µM in each case.
On to `NC(=S)N/N=C1\c2cc(Cl)ccc2-c2c1cc(Cl)cc2[N+](=O)[O-]`, for which the GI50 is 7.21 µM with CAKI-1 renal; 3.43 µM in the assay on CCRF-CEM leukemia; 9.26 µM in the assay with MALME-3M melanoma; 1.98 µM in the assay with MCF7 breast; 4.11 µM with NCI-H522 lung; 4.76 µM with NCI/ADR-RES ovarian. For the same compound, the GI50 was 3.44 µM in the assay with RPMI-8226 leukemia, 7.96 µM with SK-MEL-2 melanoma, 3.83 µM with SK-MEL-28 melanoma and 3.16 µM in the assay on UACC-62 melanoma. Besides, the TGI in the assay on CAKI-1 renal was more than 100 µM; in the assay with CCRF-CEM leukemia, more than 100 µM; in the assay with MALME-3M melanoma, 87.4 µM; in the assay with MCF7 breast it was 16.8 µM; in the assay on NCI-H522 lung, 48.6 µM; in the assay on NCI/ADR-RES ovarian, more than 100 µM. For the same compound, the TGI with RPMI-8226 leukemia was 20.5 µM; with SK-MEL-2 melanoma it was 89.8 µM; with SK-MEL-28 melanoma, more than 100 µM; in the assay with UACC-62 melanoma, more than 100 µM.
Regarding `NC(=S)N/N=C\c1nccc2c(C(F)(F)F)cccc12`, the GI50 in the assay with CAKI-1 renal is 0.312 µM; with CCRF-CEM leukemia, 0.278 µM; in the assay on MALME-3M melanoma, 0.435 µM; in the assay on MCF7 breast, 0.317 µM; with NCI-H522 lung it was 0.269 µM; in the assay on NCI/ADR-RES ovarian, 0.349 µM. In addition, the GI50 was 0.376 µM with RPMI-8226 leukemia, 0.461 µM with SK-MEL-2 melanoma, 0.57 µM in the assay on SK-MEL-28 melanoma and 0.283 µM with UACC-62 melanoma. The TGI is 8.73 µM in the assay on CAKI-1 renal; 12.1 µM in the assay on CCRF-CEM leukemia; more than 34.5 µM in the assay with MALME-3M melanoma; 13.3 µM in the assay with MCF7 breast; 0.805 µM with NCI-H522 lung; 20.4 µM in the assay on NCI/ADR-RES ovarian. Besides, the TGI with RPMI-8226 leukemia turned out to be 14.9 µM; in the assay with SK-MEL-2 melanoma, 8.34 µM; in the assay with SK-MEL-28 melanoma, 12.7 µM; in the assay with UACC-62 melanoma it was 1.15 µM.
With `Cc1cc2c(cc1C)[n+](=O)c(C(=O)c1ccccc1)c(C(F)F)n2[O-]`, the GI50 is 15.5 µM in the assay with CAKI-1 renal; 5.12 µM in the assay on CCRF-CEM leukemia; 23.2 µM with MALME-3M melanoma; 12.1 µM with MCF7 breast; 7.82 µM in the assay on NCI-H522 lung; 36.3 µM with NCI/ADR-RES ovarian. The GI50 is 5.81 µM in the assay with RPMI-8226 leukemia, 21.2 µM in the assay on SK-MEL-2 melanoma, 17.8 µM in the assay on SK-MEL-28 melanoma and 18.4 µM in the assay with UACC-62 melanoma. Moreover, the TGI with CAKI-1 renal was 71.7 µM; in the assay on CCRF-CEM leukemia, 29.6 µM; in the assay with MALME-3M melanoma it was 62.9 µM; in the assay on MCF7 breast, 41.1 µM; in the assay with NCI-H522 lung, 27.2 µM; with NCI/ADR-RES ovarian, more than 100 µM. Moreover, the TGI with RPMI-8226 leukemia was 43.9 µM; in the assay with SK-MEL-2 melanoma, 78.3 µM; with SK-MEL-28 melanoma, more than 100 µM; in the assay with UACC-62 melanoma, 96.9 µM.
Turning to `C=CC(=O)Nc1cc(Nc2nccc(-c3cn(C)c4ccccc34)n2)c(OC)cc1N(C)CCN(C)C`, the GI50 was 0.343 µM and 0.916 µM in the assay on CAKI-1 renal; 1.61 µM and 2.19 µM with CCRF-CEM leukemia; 2.16 µM and 1.71 µM in the assay with MALME-3M melanoma; 1.5 µM and 1.48 µM with MCF7 breast; 0.169 µM and 0.0657 µM in the assay on NCI-H522 lung; 1.85 µM and 1.45 µM in the assay on NCI/ADR-RES ovarian. The GI50 with RPMI-8226 leukemia is 1.95 µM and 1.45 µM; in the assay with SK-MEL-2 melanoma, 2.08 µM and 1.94 µM; in the assay with SK-MEL-28 melanoma, 1.63 µM and 1.62 µM; in the assay with UACC-62 melanoma it was 1.85 µM and 1.71 µM. Further, the TGI with CAKI-1 renal is 6.75 µM and 2.49 µM; with CCRF-CEM leukemia, 5.84 µM and 5.33 µM; in the assay with MALME-3M melanoma, 3.97 µM and 3.28 µM; in the assay with MCF7 breast, 3.47 µM and 3.6 µM; in the assay on NCI-H522 lung, 1.98 µM and 1.53 µM; with NCI/ADR-RES ovarian, 9.57 µM and 8.18 µM. Further, the TGI with RPMI-8226 leukemia is 6.65 µM and 4.08 µM; with SK-MEL-2 melanoma it was 4.04 µM and 3.87 µM; with SK-MEL-28 melanoma it was 3.07 µM and 3.12 µM; in the assay on UACC-62 melanoma, 3.61 µM and 3.4 µM.
On to `COc1cc(-c2nn(-c3cccc(NC(=O)c4ccccc4)c3)cc2-c2ccncc2)ccc1Cl`, for which the GI50 in the assay with CAKI-1 renal was 0.836 µM; in the assay on CCRF-CEM leukemia it was 0.492 µM; with MALME-3M melanoma, 0.344 µM; in the assay on MCF7 breast, 0.344 µM; with NCI-H522 lung, 0.238 µM; with NCI/ADR-RES ovarian, 0.36 µM. For the same compound, the GI50 is 0.457 µM with RPMI-8226 leukemia, 0.326 µM in the assay with SK-MEL-2 melanoma, 3.26 µM in the assay with SK-MEL-28 melanoma and 0.568 µM with UACC-62 melanoma. Also, the TGI in the assay with CAKI-1 renal was more than 40.5 µM; in the assay on CCRF-CEM leukemia, more than 100 µM; with MCF7 breast it was more than 100 µM; in the assay on NCI/ADR-RES ovarian, more than 100 µM; with RPMI-8226 leukemia, more than 100 µM; in the assay with SK-MEL-2 melanoma it was 2.1 µM. For the same compound, the TGI with SK-MEL-28 melanoma and with UACC-62 melanoma was more than 100 µM each time.
Consider `COc1cc2c(cc1OC)-c1cc(OC)c(OC)cc1C(CN(C)C)C2` (stereo not drawn), for which the GI50 with CAKI-1 renal, in the assay on CCRF-CEM leukemia, in the assay on MALME-3M melanoma, in the assay with MCF7 breast, in the assay with NCI-H522 lung and in the assay on NCI/ADR-RES ovarian was more than 10 µM each time. For the same compound, the GI50 with RPMI-8226 leukemia, in the assay on SK-MEL-2 melanoma, in the assay with SK-MEL-28 melanoma and in the assay on UACC-62 melanoma was more than 10 µM in each case. In addition, the TGI in the assay on CAKI-1 renal, with CCRF-CEM leukemia, in the assay with MALME-3M melanoma, in the assay on MCF7 breast, with NCI-H522 lung and in the assay with NCI/ADR-RES ovarian was more than 10 µM in each case. Besides, the TGI in the assay on RPMI-8226 leukemia, in the assay on SK-MEL-2 melanoma, with SK-MEL-28 melanoma and in the assay with UACC-62 melanoma was more than 10 µM each time.
As for `COc1cc2c(cc1OC)C(Cl)C(c1ccc(F)cc1)=C2Cl` (stereo not drawn), the TGI came to 29.1 µM with CAKI-1 renal; 29.1 µM in the assay with CCRF-CEM leukemia; 28.7 µM in the assay on MALME-3M melanoma; 23.9 µM with MCF7 breast; 21.8 µM with NCI-H522 lung; 34.5 µM with NCI/ADR-RES ovarian. Besides, the TGI in the assay with RPMI-8226 leukemia amounted to 39.2 µM; in the assay with SK-MEL-2 melanoma, 26.5 µM; in the assay with SK-MEL-28 melanoma, 33.3 µM; in the assay with UACC-62 melanoma, 29.8 µM.
As for `CC(=O)OCc1ccc2c(c1)C(O)NC(=O)O2` (stereo not drawn), the TGI with CAKI-1 renal is more than 100 µM; in the assay with CCRF-CEM leukemia it was 40.4 µM; in the assay with MALME-3M melanoma, more than 100 µM; in the assay on MCF7 breast, more than 100 µM; in the assay on NCI-H522 lung, more than 100 µM; in the assay with NCI/ADR-RES ovarian, more than 100 µM. Moreover, the TGI is 73.6 µM in the assay on RPMI-8226 leukemia, more than 100 µM with SK-MEL-2 melanoma, more than 100 µM in the assay on SK-MEL-28 melanoma and more than 100 µM with UACC-62 melanoma.
For the compound `COc1c2ccccc2c(OC)c2[nH]c(=O)ccc12`, the GI50 in the assay with CAKI-1 renal was 16.2 µM; in the assay on CCRF-CEM leukemia, more than 24.5 µM; in the assay on MALME-3M melanoma, 0.578 µM; in the assay on MCF7 breast it was 4.37 µM; with NCI-H522 lung it was 7.73 µM; with NCI/ADR-RES ovarian, 6.51 µM. Besides, the GI50 in the assay on RPMI-8226 leukemia is 12.6 µM; with SK-MEL-2 melanoma it was 4.92 µM; in the assay with SK-MEL-28 melanoma, 2.37 µM; in the assay with UACC-62 melanoma, 1.65 µM. The TGI is more than 90.6 µM in the assay on CAKI-1 renal; more than 100 µM with CCRF-CEM leukemia; 1.78 µM in the assay with MALME-3M melanoma; more than 54.8 µM with MCF7 breast; more than 100 µM with NCI-H522 lung; more than 100 µM in the assay with NCI/ADR-RES ovarian. Also, the TGI in the assay with RPMI-8226 leukemia is more than 100 µM; in the assay on SK-MEL-2 melanoma it was more than 75.8 µM; in the assay with SK-MEL-28 melanoma it was 5.1 µM; in the assay with UACC-62 melanoma, 3.33 µM.
`Nc1nc2[nH]cc(CCc3ccc(C(=O)N[C@@H](CCC(=O)O)C(=O)O)cc3)c2c(=O)[nH]1`: the GI50 was 0.0845 µM in the assay on CAKI-1 renal; 0.211 µM in the assay with CCRF-CEM leukemia; 0.0246 µM in the assay on MCF7 breast; more than 100 µM in the assay on NCI/ADR-RES ovarian; more than 65.9 µM with RPMI-8226 leukemia. The TGI in the assay on CAKI-1 renal, in the assay on CCRF-CEM leukemia, in the assay with MALME-3M melanoma, in the assay with MCF7 breast, in the assay on NCI-H522 lung and in the assay with NCI/ADR-RES ovarian was more than 100 µM in each case. The TGI in the assay on RPMI-8226 leukemia, in the assay with SK-MEL-2 melanoma, with SK-MEL-28 melanoma and with UACC-62 melanoma was more than 100 µM in each case.
Take `O=[N+]([O-])c1cc([N+](=O)[O-])c(C(F)(F)F)cc1NN=C(c1ccc(O)cc1)c1ccc(O)cc1`: the GI50 with CAKI-1 renal is 3.34 µM; with CCRF-CEM leukemia, 3.71 µM; in the assay on MALME-3M melanoma, 4.72 µM; in the assay on MCF7 breast, 2.63 µM; in the assay with NCI-H522 lung, 3.82 µM; in the assay with NCI/ADR-RES ovarian it was 4.44 µM. For the same compound, the GI50 in the assay on RPMI-8226 leukemia was 3.71 µM; with SK-MEL-2 melanoma, 2.56 µM; in the assay on SK-MEL-28 melanoma, 1.89 µM; in the assay with UACC-62 melanoma it was 2.07 µM. Also, the TGI amounted to 15.3 µM in the assay on CAKI-1 renal; 14.4 µM in the assay with CCRF-CEM leukemia; 35.1 µM in the assay on MALME-3M melanoma; 7.73 µM with MCF7 breast; 39.7 µM with NCI-H522 lung; 65.4 µM in the assay with NCI/ADR-RES ovarian. Also, the TGI is 12.6 µM with RPMI-8226 leukemia, 5.99 µM in the assay with SK-MEL-2 melanoma, 4.47 µM with SK-MEL-28 melanoma and 4.6 µM with UACC-62 melanoma.
